Test system: K562 cells
Test: Release of labeled proteins from dead cells, NanoBiT bioluminescence (HaloTag-SmBiT/HaloTag-LgBiT), K562
Format: cell-based
Conditions: for Dead/Live at 5,000 cells/well: final labeling probe concentration 5 μM; for Dead, RLUs: dead (digitonin treated) cells; for Live, RLUs: live cells; for Dead/Live: ratio after background subtraction
Description: Next, the bifunctional labeling probe was thawed at room temperature and mixed. The probe was generally contained in DMSO. The bifunctional probe was added to the cells at a final concentration between about 0.5-10 μM. The cells were then mixed by gently pipetting and incubated for 30 minutes at 37° C. To inactivate unreactive free labeling probe, a 10× volume of pre-warmed (37° C.) cell culture medium containing 10% FBS was added, and the cells incubated for additional 5 minutes. The labeled cells were then spun down, and the labeling media removed. The cells were resuspended in fresh cell culture media at the concentration required for the experiment.
In some embodiments, one or more components of the NanoBiT® system can be used for measuring cell death of pre-labeled cell population in mixed cell cultures. Here, an exemplary protocol is described for using this assay in 96-well plates in […]: 50 μl of sample+50 μl of Detection Reagent+25 μl of Nano-Glo® Luciferase Assay substrate.
Labeled cells (1,250-10,000 cells/well) were plated with experimental treatment conditions (e.g., drug, effector cells, etc.) in 50 μl of appropriate medium. Wells without cells were included as negative controls to determine background luminescence in the media. Separate wells were included with pre-labeled cells for determining maximum release of labeled proteins. Detection Reagents were assembled: about 1 ml of Detection Reagent buffer (2×) was combined with about 1.25 μl of Detection Component 1 and 1.25 μl of Detection Component 2. If maximum release determination was needed, the required amount of prepared Detection Reagent (50 μl/per sample) was removed, and digitonin at 0.12 mg/ml concentration added (for example, add 6 μl to 1 ml of Detection Reagent).
About 50 μl of prepared Detection Reagent was added into all assay wells and negative (media) control wells. Detection Reagent with Digitonin was added into control wells for determining maximum release. The cells were placed into a tissue culture incubator, and the treatment continued up to 24 hours. Nano-Glo® Luciferase Assay Substrate was prepared by diluting (1:50) substrate into assay medium. The assay plate was then removed from the tissue culture incubator and equilibrated to room temperature for about 5 mins. About 25 μL of prepared substrate was added to the assay wells, mixed, and luminescence was read.
No labeling control was included for toxicity evaluation. After labeling, the cells were resuspended in appropriate medium, counted, and plated into wells of a 96-well plate at two-fold serial dilution starting from 20,000 cells/well. The Detection Reagents with or without digitonin were added as described above, and the plates were placed into a tissue culture incubator. After incubation, Nano-Glo® Luciferase Assay substrate was added to the samples, and luminescence was read. After reading luminescence, an equal volume of CellTiter-Glo was added to the samples to measure changes in viability. […] The linear range of the assay is underlined. Dead/Live is the ratio between luminescence signal of dead and live cells calculated after assay background subtraction (media control).

With `O=C(NCCOCCOCCCCCCCl)c1ccc(C(=O)ON2C(=O)CCC2=O)cc1` [Labeling Probe, 2,5-dioxopyrrolidin-1-yl 4-((2-(2-((6-chlorohexyl)oxy)ethoxy)ethyl)carbamoyl)benzoate] as the molecule, how does the “Dead/Live at 5,000 cells/well” value (at 4 h) read?
The value was 18.3.

And the “Dead/Live at 5,000 cells/well” value (at 24 h)?
Its value is 19.0.

What about the assay window (labeling at 2 μM) of the same molecule?
The assay window was 7-8 fold.

What about the assay window (labeling at 5 μM) of the same molecule?
The assay window was 18 fold.

And the “Dead, RLUs” value (probe 2 μM, 1,250 cells/well)?
The value was 69,663 RLUs.

And the “Live, RLUs” value (probe 2 μM, 1,250 cells/well)?
Its value is 37,113 RLUs.

And the Dead/Live (probe 2 μM, 1,250 cells/well)?
Its Dead/Live is 5.0.

What about the “Dead, RLUs” value (probe 2 μM, 2,500 cells/well) of the same molecule?
The value was 88,448 RLUs.

And the “Live, RLUs” value (probe 2 μM, 2,500 cells/well)?
Its value is 40,600 RLUs.

What about the Dead/Live (probe 2 μM, 2,500 cells/well) of the same molecule?
Its Dead/Live is 5.2.

What about the “Dead, RLUs” value (probe 2 μM, 5,000 cells/well) of the same molecule?
Its value is 114,346 RLUs.

And the “Live, RLUs” value (probe 2 μM, 5,000 cells/well)?
The value was 42,059 RLUs.

What about the Dead/Live (probe 2 μM, 5,000 cells/well) of the same molecule?
The Dead/Live was 7.6.

What about the “Dead, RLUs” value (probe 2 μM, 10,000 cells/well) of the same molecule?
Its value is 154,018 RLUs.

And the “Live, RLUs” value (probe 2 μM, 10,000 cells/well)?
Its value is 47,861 RLUs.

What about the Dead/Live (probe 2 μM, 10,000 cells/well) of the same molecule?
The Dead/Live was 7.3.

What about the “Dead, RLUs” value (probe 2 μM, 20,000 cells/well) of the same molecule?
The value was 192,283 RLUs.

What about the “Live, RLUs” value (probe 2 μM, 20,000 cells/well) of the same molecule?
Its value is 51,528 RLUs.

What about the Dead/Live (probe 2 μM, 20,000 cells/well) of the same molecule?
The Dead/Live was 7.9.

And the “Dead, RLUs” value (probe 5 μM, 1,250 cells/well)?
The value was 236,022 RLUs.

What about the “Live, RLUs” value (probe 5 μM, 1,250 cells/well) of the same molecule?
Its value is 43,298 RLUs.

What about the Dead/Live (probe 5 μM, 1,250 cells/well) of the same molecule?
Its Dead/Live is 18.1.

And the “Dead, RLUs” value (probe 5 μM, 2,500 cells/well)?
Its value is 373,598 RLUs.

And the “Live, RLUs” value (probe 5 μM, 2,500 cells/well)?
The value was 50,284 RLUs.

And the Dead/Live (probe 5 μM, 2,500 cells/well)?
Its Dead/Live is 18.7.

What about the “Dead, RLUs” value (probe 5 μM, 5,000 cells/well) of the same molecule?
Its value is 591,060 RLUs.

And the “Live, RLUs” value (probe 5 μM, 5,000 cells/well)?
The value was 60,873 RLUs.

What about the Dead/Live (probe 5 μM, 5,000 cells/well) of the same molecule?
The Dead/Live was 19.4.

What about the “Dead, RLUs” value (probe 5 μM, 10,000 cells/well) of the same molecule?
Its value is 620,751 RLUs.

What about the “Live, RLUs” value (probe 5 μM, 10,000 cells/well) of the same molecule?
The value was 76,596 RLUs.

And the Dead/Live (probe 5 μM, 10,000 cells/well)?
Its Dead/Live is 13.1.

What about the “Dead, RLUs” value (probe 5 μM, 20,000 cells/well) of the same molecule?
The value was 477,185 RLUs.

And the “Live, RLUs” value (probe 5 μM, 20,000 cells/well)?
Its value is 78,093 RLUs.

What about the Dead/Live (probe 5 μM, 20,000 cells/well) of the same molecule?
The Dead/Live was 9.4.

What about the “increase in light output in live cells as compared to media control” value (within the linear range of the assay) of the same molecule?
Its value is “less than 2 fold”.
